These molecules were tested against T1, human ADRA2B receptor (Homo sapiens, UniProt P18089) (assay: ADRA2B arrestin agonist assay). Details: CHO-K1 cells stably expressing human ADRA2B; read-out: Beta-Arrestin - Human Alpha2B EC50.
T1 construct: expressed in transfected cells
T1 sequence (P18089 1-450): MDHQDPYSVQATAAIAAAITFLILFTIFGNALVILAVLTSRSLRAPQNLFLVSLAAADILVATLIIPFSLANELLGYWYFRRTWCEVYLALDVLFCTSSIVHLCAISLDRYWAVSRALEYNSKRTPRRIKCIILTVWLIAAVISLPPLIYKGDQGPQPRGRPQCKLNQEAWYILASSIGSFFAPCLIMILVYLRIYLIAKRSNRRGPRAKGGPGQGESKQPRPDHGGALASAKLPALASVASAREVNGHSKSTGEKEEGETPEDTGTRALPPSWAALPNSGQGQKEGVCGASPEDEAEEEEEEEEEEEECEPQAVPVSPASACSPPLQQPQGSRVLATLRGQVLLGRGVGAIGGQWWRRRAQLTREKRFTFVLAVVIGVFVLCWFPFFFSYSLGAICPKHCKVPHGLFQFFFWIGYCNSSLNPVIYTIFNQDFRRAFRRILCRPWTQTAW
Assay type: cell-based
Description: ADRA2A and ADRA2B Arrestin Agonist Assay Method
The arrestin assay uses frozen CHO-K1 cell lines stably expressing human ADRA2A and ADRA2B receptors. Cells are frozen following normal cell freezing protocols. Briefly, cells are washed with PBS and then dissociated with 0.25% trypsin. Dissociated cells are quenched in full media and then collected by centrifugation at 290×g for 5 minutes. […] Cells are stored at −80° C. (or in liquid N2 if stored >6 months) until the day of the assay.
On the day before the assay, frozen cells are thawed in a 37° C. water bath, brought up in 20 mL of full media, and collected via centrifugation at 290×g for 5 minutes. […] Cells are incubated overnight in a 37° C., 5% CO2 cell incubator.
On the day of the assay, agonists are diluted in Opti-MEM to 3.5x of the final assay concentration. 4 μL of agonists are added to the cells and incubated for 2 hours at 37° C. in a 5% CO2 cell incubator. 6 μL of arrestin detection reagents are dispensed onto the cells and the plates are incubated for 2 hours at room temperature. […] Plates are read on an Envision luminescence plate reader.

Structure (SMILES) | EC50 [nM]
Cc1cccc([C@@H](Cc2cocn2)c2c[nH]cn2)c1C [Compound 367, 4-[(R)-2-(4-imidazolyl)-2-(2,3-xylyl)ethyl]-1,3-oxazole] | > 500
Cn1ncc2c(C(Cc3cccc(CF)n3)c3c[nH]cn3)cccc21 (centres unmarked) [Compound 303, 4-{2-[6-(fluoromethyl)-2-pyridyl]-1-(4-imidazolyl)ethyl}-1-methyl-1H-indazole] | 10 to 50
Cc1cccc(C(Cn2cccn2)c2c[nH]cn2)c1C (centres unmarked) [Compound 406, 1-[2-(4-imi-dazolyl)-2-(2,3-xylyl)ethyl]pyra-zole] | 10 to 50
Cc1cccc(C(Cc2ccnc(C(C)(C)O)n2)c2c[nH]cn2)c1C (centres unmarked) [Compound 353, 2-{4-[2-(4-imidazolyl)-2-(2,3-xylyl)ethyl]-2-pyrimidinyl}-2 propanol] | < 10
Cc1cccc(C(Cc2ccc(C(N)=O)nc2)c2c[nH]cn2)c1C (centres unmarked) [Compound 288, 5-[2-(4-imidazolyl)-2-(2,3-xylyl)ethyl]-2-pyridinecarboxamide] | < 10
COc1c(C)cccc1[C@@H](Cc1ccnn1C)c1c[nH]cn1 [Compound 381, 5-[(R)-2-(4-imidazolyl)-2-(2-methoxy-3-tolyl)ethyl]-1-methylpyrazole] | > 500
Cc1cccc(CC(c2c[nH]cn2)c2cccc(C)c2F)n1 (centres unmarked) [Compound 259, 4-[1-(2-fluoro-3-tolyl)-2-(6-methyl-2-pyridyl)ethyl]imida-zole] | 10 to 50
COc1nccc(C[C@H](c2c[nH]cn2)c2cccc3ccn(C)c23)n1 [Compound 349, 4-[(S)-2-(4-imidazolyl)-2-(1-methyl-7-indolyl)ethyl]-2-methoxypyrimidine] | > 500
Cc1cccc(C(Cc2nc(CO)ccc2F)c2c[nH]cn2)c1C (centres unmarked) [Compound 317, {5-fluoro-6-[2-(4-imidazolyl)-2-(2,3-xylyl)ethyl]-2-pyridyl}methanol] | < 10
Cc1cccc([C@H](Cc2ccnn2CF)c2c[nH]cn2)c1C [Compound 262, 5-[(S)-2-(4-imidazolyl)-2-(2,3-xylyl)ethyl]-1-(fluoromethyl)pyra-zole] | 10 to 50
CC(C)n1cc(C[C@@H](c2c[nH]cn2)c2cccc3c2OCC3)cn1 [Compound 297, 4-[(R)-2-(2,3-dihydro-1-benzofuran-7-yl)-2-(4-imidazolyl)ethyl] 1-isopropylpyrazole] | > 500
COc1c(C)cccc1C(Cc1cc(C)ncn1)c1c[nH]cn1 (centres unmarked) [Compound 276, 4-[2-(4-imidazolyl)-2-(2-methoxy-3-tolyl)ethyl]-6-methylpyrimidine] | 50 to 500
Cc1cccc(C(Cc2cn(C3CC3)nn2)c2c[nH]cn2)c1C (centres unmarked) [Compound 404, 1-cyclopropyl-4-[2-(4-imi-dazolyl)-2-(2,3-xylyl)ethyl]-1H-1,2,3-triazole] | < 10
COc1nccc(C[C@H](c2c[nH]cn2)c2cccc(C)c2OC)n1 [Compound 180, 4-[(S)-2-(4-imidazolyl)-2-(2-methoxy-3-tolyl)ethyl]-2-methoxypyrimidine] | > 500
COc1nccc(CC(c2c[nH]cn2)c2cccc(Cl)c2F)n1 (centres unmarked) [Compound 190, 4-[2-(3-chloro-2-fluorophenyl)-2-(4-imidazolyl)ethyl]-2-methoxypyrimidine] | 10 to 50
COc1nccc(CC(c2c[nH]cn2)c2cccc(F)c2C)n1 (centres unmarked) [Compound 154, 4-[2-(3-fluoro-2-tolyl)-2-(4-imidazolyl)ethyl]-2-methoxypyrimidine] | 10 to 50
Cc1cc(CC(c2c[nH]cn2)c2cccc(C)c2C)nc(C(C)(C)F)n1 (centres unmarked) [Compound 206, 2-(1-fluoro-1-methylethyl)-4-[2-(4 imidazolyl)-2-(2,3-xylyl)ethyl]-6-methylpyrimidine] | < 10
COc1nccc(CC(c2c[nH]cn2)c2ccccc2C(F)(F)F)n1 (centres unmarked) [Compound 354, 4-{2-(4-imidazolyl)-2-[o-(trifluoromethyl)phenyl]eth-yl}-2-methoxypyrimidine] | > 500
COCn1ccc(C[C@H](c2c[nH]cn2)c2cccc(C)c2C)n1 [Compound 278, 3-[(S)-2-(4-imidazolyl)-2-(2,3-xylyl)ethyl]-1-(methoxymethyl)pyrazole] | < 10
Cc1cccc([C@@H](Cc2ccnc(C(C)(C)F)n2)c2c[nH]cn2)c1C [Compound 205, 4-[(R)-2-(4-imidazolyl)-2-(2,3-xylyl)ethyl]-2-(1-fluoro-1-methylethyl)pyrimidine] | < 10

Structure (SMILES) | EC50 [nM]
COc1nccc(CC(c2cccc(Cl)c2)c2c[nH]cn2)n1 (centres unmarked) [Compound 340, 4-[2-(m-chlorophenyl)-2-(4-imidazolyl)ethyl]-2-methoxypyrimidine] | 50 to 500
COCc1nccc(CC(c2c[nH]cn2)c2cccc3c2OCC3)n1 (centres unmarked) [Compound 306, 4-[2-(2,3-dihydro-1-benzofuran-7-yl)-2-(4-imidazolyl)ethyl]-2-(methoxymethyl)pyrimidine] | < 10
Cc1nccc(CC(c2c[nH]cn2)c2cccc3cccnc23)n1 (centres unmarked) [Compound 341, 4-[2-(4-imidazolyl)-2-(8-quinolyl)ethyl]-2-methylpyrimidine] | < 10
Cc1cccc(C(Cc2ccsn2)c2c[nH]cn2)c1C (centres unmarked) [Compound 245, 3-[2-(4-imidazolyl)-2-(2,3-xylyl)ethyl]isothiazole] | < 10
COc1nccc(CC(c2c[nH]cn2)c2cccc(OC)c2F)n1 (centres unmarked) [Compound 181, 4-[2-(2-fluoro-3-methoxyphenyl)-2-(4-imidazolyl)ethyl]-2-methoxypyrimidine] | 10 to 50
CCc1cccc(C(Cc2ccn3ccnc3c2)c2c[nH]cn2)c1O (centres unmarked) [Compound 397, 2-[2-(1,3a-diaza-6-indenyl)-1-(4-imidazolyl)ethyl]-6-ethylphenol] | > 500
COCc1nccc(CC(c2c[nH]cn2)c2cccc(C)c2C)n1 (centres unmarked) [Compound 176, 4-[2-(4-imidazolyl)-2-(2,3-xylyl)ethyl]-2-(methoxymethyl) pyrimidine] | < 10
Cc1cccc([C@@H](Cc2cccc(C(C)(C)O)n2)c2c[nH]cn2)c1C [Compound 304, 2-{6-[(R)-2-(4-imidazolyl) 2-(2,3-xylyl)ethyl]-2-pyridyl}-2-propanol] | < 10
Cc1cccc([C@@H](Cc2cn(C)nn2)c2c[nH]cn2)c1F [Compound 249, 4-[(R)-2-(2-fluoro-3-tolyl)-2-(4-imidazolyl)ethyl]-1-methyl-1H-1,2,3-triazole] | < 10
Cc1cc(CC(c2c[nH]cn2)c2cccc3ccn(C)c23)ncn1 (centres unmarked) [Compound 165, 4-[2-(4-imidazolyl)-2-(1-methyl-7-indolyl)ethyl]-6-methylpyrimidine] | 50 to 500
COc1nccc(CC(c2cccc(C)c2)c2c[nH]cn2)n1 (centres unmarked) [Compound 337, 4-[2-(4-imidazolyl)-2-(m-tolyl)ethyl]-2-methoxypyrimidine] | 10 to 50
Cc1cccc([C@@H](Cc2cn(C)nn2)c2c[nH]cn2)c1C [Compound 239, 4-[(R)-2-(4-imidazolyl)-2-(2,3-xylyl)ethyl]-1-methyl-1H-1,2,3-triazole] | > 500
Cc1cccc(C(Cc2cnc3n[nH]cc3c2)c2c[nH]cn2)c1C (centres unmarked) [Compound 287, 5-[2-(4-imidazolyl)-2-(2,3-xylyl)ethyl]-2H-1,2,7-triazaindene-formic acid (1/1)] | < 10
Cn1ccc2cccc(C(Cc3cc[nH]n3)c3c[nH]cn3)c21 (centres unmarked) [Compound 253, 3-[2-(4-imidazolyl)-2-(1-methyl-7-indolyl)ethyl]pyrazole] | > 500
Cc1cccc([C@H](Cc2ccnn2C(F)F)c2c[nH]cn2)c1C [Compound 281, 5-[(S)-2-(4-imidazolyl)-2-(2,3-xylyl)ethyl]-1-(difluoromethyl)pyrazole] | < 10
COc1c(C)cccc1C(Cc1cccc(C)n1)c1c[nH]cn1 (centres unmarked) [Compound 389, 4-[1-(2-methoxy-3-tolyl)-2-(6-methyl-2-pyridyl)ethyl]imida-zole-formic acid (1/1)] | 50 to 500
Cc1cccc(C(Cc2cocn2)c2c[nH]cn2)c1Cl (centres unmarked) [Compound 376, 4-[2-(2-chloro-3-tolyl)-2-(4-imidazolyl)ethyl]-1,3-oxazole] | 10 to 50
Cn1nccc1CC(c1c[nH]cn1)c1cccc2ccn(C)c12 (centres unmarked) [Compound 267, 5-[2-(4-imidazolyl)-2-(1-methyl-7-indolyl)ethyl]-1-methylpyrazole] | 50 to 500
CNC(=O)c1ccc(CC(c2c[nH]cn2)c2cccc(C)c2C)cn1 (centres unmarked) [Compound 302, N-methyl-5-[2-(4-imidazolyl)-2-(2,3-xylyl)ethyl]-2-pyridinecarboxamide] | < 10
Cc1cccc(C(Cc2ccnc(COC3CC3)n2)c2c[nH]cn2)c1C (centres unmarked) [Compound 208, 2-(cyclopropoxymethyl)-4-[2-(4-imidazolyl) 2-(2,3-xylyl)ethyl]pyrimidine] | < 10

Same assay, conditions: read-out: Beta-Arrestin - Human Alpha2B EC50

Structure (SMILES) | EC50 [nM]
Cc1cccc([C@H](Cc2cn[nH]c2)c2c[nH]cn2)c1C [Compound 233, 4-[(S)-2-(4-imidazolyl)-2-(2,3-xylyl)ethyl]pyrazole] | < 10

— patent US20260042769A1, “TRIARYL AGONISTS OF ALPHA-2 ADRENERGIC RECEPTORS” (ALCEPTOR THERAPEUTICS, INC., priority 2023, published 2026)
